Literature values in patent US20130230587A1, “SUSTAINED RELEASE COMPOSITIONS” (Rubicon Research Private Limited, priority 2010, published 2013).

With COc1ccc2c(c1)[C@]13CCCC[C@@H]1[C@H](C2)N(C)CC3 [Dextromethorphan] as the compound, how does the “Time to peak plasma concentrations” value (absorbed from the gastrointestinal tract) read?
The value was “approximately 2.5 hours”.

What about the Plasma elimination half-life (in vivo) of the same compound?
Its Plasma elimination half-life is 1.2 to 3.9 h.
